≈ marks a conversion by molar mass, not a printed value. Calls of active or inactive are those of the source. No cut-off for these calls is given here. Peptide text beside a SMILES is read from it.
What was measured:
[1] = system: Staphylococcus epidermidis; experiment: Antimicrobial activity against Staphylococcus epidermidis IS 08032706 incubated for 16 to 18 hrs by fluorescence microplate reader analysis; format: functional; settings: time 16-18 hrs
[2] = system: Bacillus cereus; experiment: Antimicrobial activity against Bacillus cereus incubated for 16 to 18 hrs by fluorescence microplate reader analysis; format: functional; settings: time 16-18 hrs
[3] = system: Enterococcus faecium; experiment: Antimicrobial activity against Enterococcus faecium IS 1299 incubated for 16 to 18 hrs by fluorescence microplate reader analysis; format: functional; settings: time 16-18 hrs
[4] = system: Escherichia coli; experiment: Antimicrobial activity against Escherichia coli IS 08032813 incubated for 16 to 18 hrs by fluorescence microplate reader analysis; format: functional; settings: time 16-18 hrs
[5] = system: Klebsiella pneumoniae; experiment: Antimicrobial activity against Klebsiella pneumoniae IS 08B343 incubated for 16 to 18 hrs by fluorescence microplate reader analysis; format: functional; settings: time 16-18 hrs
[6] = system: Pseudomonas aeruginosa; experiment: Antimicrobial activity against Pseudomonas aeruginosa ATCC 27853 incubated for 16 to 18 hrs by fluorescence microplate reader analysis; format: functional; settings: time 16-18 hrs
[7] = system: Candida albicans; experiment: Antimicrobial activity against Candida albicans IS 08022710 incubated for 16 to 18 hrs by fluorescence microplate reader analysis; format: functional; settings: time 16-18 hrs
[8] = system: Candida albicans; experiment: Antimicrobial activity against Candida albicans IS 08030809 incubated for 16 to 18 hrs by fluorescence microplate reader analysis; format: functional; settings: time 16-18 hrs
[9] = Immunomodulatory activity in mouse peritoneal macrophage assessed as increase in MCP-1 mRNA level at 20 ug/ml measured after 6 hrs by qRT-PCR analysis relative to control; format: functional; settings: dose 20 µg/ml
[10] = system: Macrophage; experiment: Immunomodulatory activity in mouse peritoneal macrophage assessed as inhibition of LPS-induced TNF-alpha level measured after 6 hrs by qRT-PCR analysis; format: functional, tissue-based; settings: dose 5-20 µg/ml
[11] = system: Macrophage; experiment: Immunomodulatory activity in mouse peritoneal macrophage assessed as inhibition of LPS-induced MCP-1 level measured after 6 hrs by qRT-PCR analysis; format: functional, tissue-based; settings: dose 5-20 µg/ml
[12] = system: Staphylococcus aureus; experiment: In vivo antibacterial activity against vancomycin resistant Staphylococcus aureus infected in kunming mouse assessed as reduction in bacterial load in peritoneum at 10 mg/kg, im measured 18 hrs after infection; format: functional, organism-based
[13] = system: Staphylococcus aureus; experiment: In vivo antibacterial activity against vancomycin resistant Staphylococcus aureus infected in kunming mouse assessed as reduction in bacterial load in spleen at 10 mg/kg, ip administered 4 hrs after infection; format: functional, organism-based
[14] = system: Staphylococcus aureus; experiment: In vivo antibacterial activity against methicillin resistant Staphylococcus aureus IS 08032712 infected in kunming mouse assessed as increase in survival rate at 10 mg/kg, ip administered 4 hrs after infection and measured up to 7 days after infection; format: functional, organism-based; settings: time day <=7
[15] = system: Staphylococcus aureus; experiment: In vivo antibacterial activity against vancomycin resistant Staphylococcus aureus infected in neutropenic kunming mouse model assessed as bacterial load in peritoneal lavage at 10 mg/kg, ip administered 24 hrs before infection; format: functional, organism-based
[16] = system: Pseudomonas aeruginosa; experiment: Antibiofilm activity against Pseudomonas aeruginosa assessed as biofilm eradication at BIC-5 by XTT and crystal violet staining assay relative to control; format: functional
[17] = system: Klebsiella oxytoca; experiment: Antibiofilm activity against Klebsiella oxytoca assessed as biofilm eradication at BIC-5 by XTT and crystal violet staining assay relative to control; format: functional
[18] = system: Nakaseomyces glabratus; experiment: Antibiofilm activity against Candida glabrata assessed as biofilm eradication at BIC-5 by XTT and crystal violet staining assay relative to control; format: functional
[19] = system: Candida albicans; experiment: Antibiofilm activity against Candida albicans assessed as biofilm eradication at BIC-5 by XTT and crystal violet staining assay relative to control; format: functional
[20] = Immunomodulatory activity in mouse peritoneal macrophage assessed as inhibition of LPS-induced IL-6 level at 5 ug/ml measured after 6 hrs by qRT-PCR analysis relative to control; format: functional
[21] = system: Neutrophil; experiment: Immunomodulatory activity in neutrophils (unknown origin) assessed as increase in MCP-1 level at 20 ug/ml measured after 12 hrs by ELISA; format: functional, cell-based; settings: dose 20.0 µg/ml
[22] = system: Mus musculus; experiment: Immunomodulatory activity in Kunming mouse infected with vancomycin-resistant Staphylococcus aureus assessed as decreased in IL-1beta level in peritoneal lavage at 10 mg/kg, ip administered 24 hrs before infection by ELISA; format: functional, organism-based
[23] = system: Mus musculus; experiment: Immunomodulatory activity in Kunming mouse infected with vancomycin-resistant Staphylococcus aureus assessed as decreased in IL-6 level in peritoneal lavage at 10 mg/kg, ip administered 4 hrs after infection by ELISA; format: functional, organism-based
[24] = system: Mus musculus; experiment: Immunomodulatory activity in Kunming mouse infected with vancomycin-resistant Staphylococcus aureus assessed as increased in CXCL1/KC level in peritoneal lavage at 10 mg/kg, ip administered 4 hrs after infection by ELISA; format: functional, organism-based
[25] = Toxicity in Kunming mouse assessed as effect on CXCL1/KC levels at 10 mg/kg, ip measured after 5 hrs by ELISA; format: organism-based; settings: in vivo
[26] = Toxicity in Kunming mouse assessed as effect on MIP-2 levels at 10 mg/kg, ip measured after 5 hrs by ELISA; format: organism-based; settings: in vivo
[27] = Toxicity in Kunming mouse assessed as effect on TNF-alpha levels at 10 mg/kg, ip measured after 5 hrs by ELISA; format: organism-based; settings: in vivo
[28] = system: Staphylococcus aureus; experiment: Antibacterial activity against FITC-labelled Staphylococcus aureus ATCC 25923 infected in neutrophil cells assessed as entrapment of bacteria by NET releasing neutrophil at 20 to 40 ug/ml by fluorescence analysis; format: functional, organism-based; settings: dose 20-40 µg/ml
[29] = Cytotoxicity against mouse peritoneal macrophage assessed as cell death at 100 ug/ml by MTT assay; format: tissue-based
[30] = system: L02; experiment: Cytotoxicity against human HL7702 cells assessed as cell death at 100 ug/ml by MTT assay; format: cell-based
[31] = system: Mus musculus; experiment: Immunomodulatory activity in mouse assessed as increase number of neutrophil in peritoneal cavity at 10 mg/kg, ip measured after 5 to 24 hrs by flow cytometry; format: functional, organism-based; settings: time 5-24 hrs
[32] = system: Mus musculus; experiment: Immunomodulatory activity in mouse assessed as increase […] of KC in peritoneal cavity at 10 mg/kg, ip measured after 5 to 24 hrs by ELISA; format: functional, organism-based; settings: time 5-24 hrs
[33] = system: Mus musculus; experiment: Immunomodulatory activity in Kunming mouse infected with vancomycin-resistant Staphylococcus aureus assessed as effect number of inflammatory macrophages in peritoneal cavity at 10 mg/kg, ip measured upto 24 hrs by flow cytometry; format: functional, organism-based; settings: time hrs <=24
[34] = system: Macrophage; experiment: Inhibition of LPS-induced phosphorylation of p38 in mouse peritoneal macrophage pretreated for 1 hr followed by LPS stimulation measured after 30 mins by Western blot analysis; format: tissue-based; settings: dose 5-20 µg/ml, time 1.5 hrs
[35] = biological target: T1, Mitogen-activated protein kinase 1 and 3 (ERK2 and ERK1) (Mus musculus) (UniProt P63085+Q63844); experiment: Inhibition of LPS-induced phosphorylation of Erk1/2 in mouse peritoneal macrophage pretreated for 1 hr followed by LPS stimulation measured after 30 mins by Western blot analysis; format: tissue-based; settings: dose 5-20 µg/ml, time 1.5 hrs
[36] = biological target: T1, Mitogen-activated protein kinase 1 and 3 (ERK2 and ERK1) (Mus musculus); experiment: Inhibition of LPS-induced phosphorylation of Erk1/2 in mouse peritoneal macrophage at 20 ug/ml pretreated for 1 hr followed by LPS stimulation measured after 30 mins by Western blot analysis relative to control; format: tissue-based; settings: dose 20.0 µg/ml, time 1.5 hrs
[37] = Hemolytic activity in human erythrocytes measured at 100 ug/ml; format: ADME, cell-based, Erythrocyte; settings: at 100 µg/mL, read-out: Activity
[38] = system: Staphylococcus aureus; experiment: Antibacterial activity against vancomycin-resistant Staphylococcus aureus assessed as bacterial growth inhibition in presence of 100 mmol NaCl; format: functional

T1 sequence (P63085 whole entry, looked up): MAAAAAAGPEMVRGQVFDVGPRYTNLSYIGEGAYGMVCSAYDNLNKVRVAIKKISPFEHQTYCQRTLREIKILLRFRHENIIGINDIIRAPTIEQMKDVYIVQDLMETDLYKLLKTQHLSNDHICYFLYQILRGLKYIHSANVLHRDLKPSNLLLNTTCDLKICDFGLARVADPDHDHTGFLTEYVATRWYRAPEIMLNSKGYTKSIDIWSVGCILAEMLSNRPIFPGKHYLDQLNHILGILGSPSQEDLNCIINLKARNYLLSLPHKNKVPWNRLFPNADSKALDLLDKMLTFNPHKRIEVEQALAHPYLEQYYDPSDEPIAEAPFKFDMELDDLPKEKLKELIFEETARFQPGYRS
T1 sequence (Q63844 whole entry, looked up): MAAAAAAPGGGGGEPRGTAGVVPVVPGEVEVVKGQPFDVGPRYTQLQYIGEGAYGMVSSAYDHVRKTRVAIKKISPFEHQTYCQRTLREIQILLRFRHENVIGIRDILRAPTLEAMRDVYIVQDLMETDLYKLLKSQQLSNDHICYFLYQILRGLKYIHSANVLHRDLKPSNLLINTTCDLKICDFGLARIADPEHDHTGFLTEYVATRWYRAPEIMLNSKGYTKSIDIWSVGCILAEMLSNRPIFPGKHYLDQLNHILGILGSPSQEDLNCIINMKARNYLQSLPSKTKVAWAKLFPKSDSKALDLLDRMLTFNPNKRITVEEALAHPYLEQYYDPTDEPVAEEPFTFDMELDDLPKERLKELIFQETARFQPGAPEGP

Q: For `CC[C@H](C)[C@H](NC(=O)[C@@H]1CCCN1C(=O)[C@@H](NC(=O)[C@@H](NC(=O)CNC(=O)CNC(=O)[C@@H](NC(=O)[C@H](Cc1ccccc1)NC(=O)[C@@H](NC(=O)[C@H](CCCCN)NC(=O)[C@@H](NC(=O)[C@H](CCCCN)NC(=O)[C@H](CCCCN)NC(=O)[C@H](Cc1ccccc1)NC(=O)[C@@H](NC(=O)[C@H](CCCCN)NC(=O)[C@H](CCCNC(=N)N)NC(=O)[C@H](Cc1ccccc1)NC(=O)CNC(=O)[C@H](CCCCN)NC(=O)[C@H](CCCCN)NC(=O)[C@@H](NC(=O)[C@H](CCCCN)NC(=O)[C@H](CCCNC(=N)N)NC(=O)[C@H](Cc1ccccc1)NC(=O)[C@H](Cc1ccccc1)NC(=O)[C@H](CCCCN)NC(=O)[C@H](CCCCN)NC(=O)[C@H](Cc1ccccc1)NC(=O)[C@H](CCCNC(=N)N)NC(=O)[C@@H](N)CCCCN)[C@@H](C)CC)[C@@H](C)CC)[C@@H](C)O)[C@@H](C)CC)[C@@H](C)CC)[C@@H](C)O)[C@@H](C)CC)C(=O)O` (H-KRFKKFFRKIKKGFRKIFKKTKIFIGGTIPI-OH), which MIC [1] is on record?
A: The MIC was 1.17 µg/mL (≈ 0.308 µM).

Q: And the MIC [2]?
A: Its MIC is 1.17 µg/mL (≈ 0.308 µM).

Q: What about the MIC [3] of the same compound?
A: The MIC was 1.17 µg/mL (≈ 0.308 µM).

Q: What about the MIC [4] of the same compound?
A: Its MIC is 1.17 µg/mL (≈ 0.308 µM).

Q: And the MIC [5]?
A: Its MIC is 1.17 µg/mL (≈ 0.308 µM).

Q: And the MIC [6]?
A: The MIC was 1.17 µg/mL (≈ 0.308 µM).

Q: What about the MIC [7] of the same compound?
A: Its MIC is 1.17 µg/mL (≈ 0.308 µM).

Q: What about the MIC [8] of the same compound?
A: Its MIC is 1.17 µg/mL (≈ 0.308 µM).

Q: And the “fold change (FC)” value [9]?
A: The value was 13.

Q: What about the inhibition [10] of the same compound?
A: The inhibition was “Dose-dependent effect”.

Q: What about the inhibition [11] of the same compound?
A: The inhibition was “Dose-dependent effect”.

Q: And the Activity [12]?
A: Its Activity is “Active”.

Q: What about the Activity [13] of the same compound?
A: Its Activity is “Active”.

Q: What about the Activity [14] of the same compound?
A: Its Activity is “Active”.

Q: What about the Activity [15] of the same compound?
A: The Activity was “inactive”.

Q: And the Activity [16]?
A: Its Activity is 62.23%.

Q: And the Activity [17]?
A: Its Activity is 75.31%.

Q: And the Activity [18]?
A: Its Activity is 37.47%.

Q: And the Activity [19]?
A: Its Activity is 38.69%.

Q: And the inhibition at 5 µg/mL [20]?
A: The inhibition at 5 µg/mL was 99.6%.

Q: And the Activity [21]?
A: Its Activity is “Active”.

Q: And the Activity [22]?
A: The Activity was “Active”.

Q: What about the Activity [23] of the same compound?
A: The Activity was “Active”.

Q: And the Activity [24]?
A: The Activity was “Active”.

Q: And the Activity [25]?
A: Its Activity is “Non-Toxic”.

Q: What about the Activity [26] of the same compound?
A: Its Activity is “Non-Toxic”.

Q: And the Activity [27]?
A: The Activity was “Non-Toxic”.

Q: And the Activity [28]?
A: Its Activity is “Active”.

Q: What about the Activity [29] of the same compound?
A: Its Activity is 6.46%.

Q: What about the Activity [30] of the same compound?
A: Its Activity is 4.46%.

Q: And the Activity [31]?
A: The Activity was “Active”.

Q: What about the Activity [32] of the same compound?
A: Its Activity is “Active”.

Q: And the Activity [33]?
A: The Activity was “inactive”.

Q: And the inhibition [34]?
A: Its inhibition is “Dose-dependent effect”.

Q: What about the inhibition [35] of the same compound?
A: Its inhibition is “Dose-dependent effect”.

Q: What about the inhibition [36] of the same compound?
A: The inhibition was 90%.

Q: And the hemolysis at 100 ug/ml [37]?
A: The hemolysis at 100 ug/ml was 6.63%.

Q: What about the MIC [38] of the same compound?
A: The MIC was < 10 µg/mL.
